Measurements reported in patent US20240058332A1, “CRAC CHANNEL INHIBITOR COMPOSITIONS” (CalciMedica, Inc., priority 2017, published 2024).
Converted amounts (≈) assume the structure as drawn.

Tests used:
Type in all cases: physicochemical
[1] = Solubility of Compound A in F57, summary of all 7 methods
Source text: The term “solubility” used herein is defined as Compound A concentration where Compound A has reached a dissolution-precipitation equilibrium in F57 at a selected temperature. […] On the other hand, if Compound A concentration is higher than the solubility, Compound A is expected to precipitate over time.
(§1) To investigate the causes of precipitation and determine the Compound A solubility in F57 vehicle, the following seven (7) methods were applied to accurately determine solubility of Compound A in F57: • Method 1: Formulate Compound A in F57 at varied concentrations using GMP grade of Compound A and excipients with the regular process • Method 2: Formulate Compound A in F57 by introducing Compound A into a pre-formed F57 vehicle • Method 3: Observe Compound A in the previously made batches which already had extended incubation • Method 4: Conduct “top-down” and a “bottom-up” solubility studies in F57 vehicle • Method 5: Agitate Compound A GMP batch of F57 to promote the dissolution-precipitation equilibrium • Method 6: Add extra Form B seeds to Compound A GMP batch of F57 to promote Compound A crystal growth and precipitation • Method 7: Add Form B seeds to the samples made in method 1 to promote Compound A crystal growth and precipitation
(§2) For solubility determination, a F57 sample (usually about 0.5 mL) was filtered through a 0.22 μm centrifuge filter (Costar Spin-X®+, P/N8169), the filtrate (free of any solid particle) was collected, diluted with isopropanol, and tested for Compound A concentration using the following HPLC method. Dissolution-precipitation equilibrium is reached once the measured filtrate concentration is constant, and that concentration can be regarded as the solubility.
Table 40 summarizes the general conditions used in the seven methods to promote the dissolution-precipitation equilibrium. Detailed procedures are described in each method section.
The general observation and findings by all 7 methods are summarized in the table 50, according to the detailed observation and discussion pertaining to each method.

[2] = Initial formulations: Compound A saturation assay (HPLC) and appearance in template emulsion vehicles; conditions: emulsion composition containing ≥10% egg lecithin, aqueous with cosolvent or surfactant or cyclodextrin, thermodynamic from solid
Procedure: Ten compositions were prepared using various template compositions, containing lecithin, soybean oil (SBO) or medium chain triglycerides (MCT), glycerin or sucrose (non-ionic tonicity agent), edetate disodium di-hydrate (EDTA, chelating agent) in deionized water. Compound A (Form A) was added and agitated to reach solubility equilibrium at ambient room temperature. Each formulation was prepared in the following steps: Compound A (5 mg) was dispersed in each template vehicle. The formulation were then homogenized and at room temperature for >24 h and then passed sample through 0.45 μm filter for analysis (HPLC).

[3] = Solubility of Compound A in F57, Method 6: Form B seeds added to GMP batch; conditions: F57 emulsion (GMP batch), 2 °C, thermodynamic from solid; 2-8° C.; read-out: API solubility in F57
Source text: as §1
For solubility determination, a F57 sample (usually about 0.5 mL) was filtered through a 0.22 μm centrifuge filter (Costar Spin-X®+, P/N8169), the filtrate (free of any solid particle) was collected, diluted with isopropanol, and tested for Compound A concentration using the following HPLC method. […]

[4] = Emulsion stability 1 week at 40° C. (appearance, assay, Z-Ave, PFAT5); conditions: emulsions at 2-8° C. and after 8 days at 40° C.
Procedure: Procedure: • Prepared all vehicles by mixing lipid and aqueous phase ingredients and homogenized. • Added Compound A (Form A) at 0.3% concentration in each vehicle. • Homogenized and mixed overnight until uniform or achieved equilibrium. • Filtered emulsion through 0.45 μm Nylon membrane filter. • Evaluated appearance, drug concentration by HPLC assay, average droplet size and PFAT5. • Selected the top 5-10 formulations achieving acceptance criteria initially. • Placed at 40° C. for up to 2 weeks to monitor emulsion stability. • Selected the top 3-5 formulations meeting the proposed requirements after 1-2 weeks at 40° C.
Methods: • Appearance: Record visual observation • Z-ave (nm): Measure mean oil droplet size by ZetaSizer (Malvern Instrument). Dilute 50 μL sample with 950 μL DI water at room temperature • Assay (%): Use the current HPLC method • Spin-X: Pass 0.5 mL emulsion through CoStar® Spin-X 0.2 μm Nylon filter (0.7 cm^2 surface area) at 3,144 G-force centrifuge for 60 sec at ambient room temperature. Evaluate completeness of emulsion passing through the filter.

[5] = Stability of Formulation F-9 (small scale), 2 weeks at 2-8° C. and 25° C.; conditions: F-9 emulsion, after 2 weeks at 2-8° C. and 25° C.
Procedure: Procedures: Compound A (Form A) was added to F-9 vehicle containing MCT/Egg/lecithin/Sucrose/EDTA in a plastic tube. The formulation was mixed until uniform and complete drug dissolution. The emulsion was sterilized through 0.2 μm membrane filter. The samples were placed at 2-8° C. and 25° C. for stability evaluation for 2 weeks. The samples were tested for appearance, pH, Compound A assay and purity by HPLC, mean droplet size and globule size distribution in lipid injectable emulsions (USP<729>) and the results are shown in Table 17.

[6] = Solubility of Compound A in F57, Method 4: bottom-up method; conditions: 2-8° C.; for concentration in F57 vehicle: Method 4 bottom-up
Procedure: as §2
(§3) The bottom-up method used a gentle mixing to slowly dissolve Compound A (Form A) in the F57 vehicle to reach the dissolution-precipitation equilibrium in F57. The solubility of Compound A in the F57 vehicle was then determined. • Top-down method: Add form A and B API, each into a separate tube containing the F57 vehicle, then apply extensive energy to each tube by homogenizer (BB, 600 sec) to obtain a clear solution, and store each tube at 2-8° C. • Bottom-up method: Add form A and B API, each into a separate tube containing the F57 vehicle, then gently shake each tube on a platform shaker at 2-8° C. • Pull sample aliquots at 1 day, 2 days, 1 week and 4 weeks to test for appearance and concentration.

[7] = Solubility estimation of freebase Form A in 20 solvents at RT
Procedure: The solubility of N-(5-(6-chloro-2,2-difluorobenzo[d][1,3]dioxol-5-yl)pyrazin-2-yl)-2-fluoro-6-methylbenzamide freebase Form A was determined in 20 solvents at RT. These experiments were conducted by adding approximately 2 mg of sample into a 3-mL glass vial. Solvents in Table 14 were then added in 50 μL increments into the vials until the solids were dissolved or a total volume of 2 mL was reached. The solubility estimation was used to guide the solvent selection in polymorph screening. N-(5-(6-chloro-2,2-difluorobenzo[d][1,3]dioxol-5-yl)pyrazin-2-yl)-2-fluoro-6-methylbenzamide freebase Form A is soluble in MeOH, Acetic acid, Acetonitrile, Acetone, MIBK, EtOAc, IPAc, MTBE, THF, 2-MeTHF, 1,4-Dioxane, NMP, DMSO, DCM, Toluene and DMAc (>18.0 mg/mL), while it is insoluble in Heptane and H2O (<1.3 mg/mL).

[8] = DVS isotherm (hygroscopicity) of Form A
Source text: The crystal size of Form A is in the range of ˜few μm to about 50 μm.

[9] = Solubility of Compound A in F57, Method 4: bottom-up method; conditions: for concentration in F57 vehicle: Method 4 bottom-up
[10] = Solubility of Compound A in F57, Method 4: top-down method; conditions: for concentration in F57 vehicle: Method 4 top-down, 2-8° C.; for strength dissolved into F57 vehicle: top-down approach; for concentration on storage: top-down, after 4 weeks' storage at 2-8° C.
Procedure: as §2
The top-down method used high-energy homogenization to dissolve a set amount of Compound A (Form A) in the F57 vehicle to achieve supersaturation, allowing precipitation to take place over time to reach a dissolution-precipitation equilibrium in F57. The solubility of Compound A in the F57 vehicle was then determined.
as §3

Cc1cccc(F)c1C(=O)Nc1cnc(-c2cc3c(cc2Cl)OC(F)(F)O3)cn1 [Compound A, N-(5-(6-chloro-2,2-difluorobenzo[d][1,3]dioxol-5-yl)pyrazin-2-yl)-2-fluoro-6-methylbenzamide]
solubility ([1]; F57, thermodynamic from solid, in F57, Method 2, Equilibrium reached, read-out: Measured Solubility): 1800 to 1900 µg/mL (≈ 4.27 to 4.5 mM)
solubility ([1]; F57, thermodynamic from solid, in F57, Method 4, Equilibrium reached, read-out: Measured Solubility): 1800 µg/mL (≈ 4.27 mM)
solubility ([1]; F57, thermodynamic from solid, in F57, Method 5, Equilibrium reached, read-out: Measured Solubility): 1800 to 1900 µg/mL (≈ 4.27 to 4.5 mM)
solubility ([1]; F57, thermodynamic from solid, in F57, Method 6, Equilibrium reached, read-out: Measured Solubility): 1800 to 1900 µg/mL (≈ 4.27 to 4.5 mM)
solubility ([1]; F57, thermodynamic from solid, in F57, Method 7, Equilibrium reached, read-out: Measured Solubility): 1800 to 1900 µg/mL (≈ 4.27 to 4.5 mM)
solubility [2]: ≥ 2400 µg/mL
solubility [3]: 1800 to 1900 µg/mL (≈ 4.27 to 4.5 mM)
% purity on stability [4]: 99.9%
appearance and HPLC assay on stability [5]: remained unchanged

Cc1cccc(F)c1C(=O)Nc1cnc(-c2cc3c(cc2Cl)OC(F)(F)O3)cn1 [Form A, N-(5-(6-chloro-2,2-difluorobenzo[d][1,3]dioxol-5-yl)pyrazin-2-yl)-2-fluoro-6-methylbenzamide]
solubility ([1]; F57 emulsion, 2 °C, thermodynamic from solid, 2-8° C., all methods, read-out: solubility in F57): 1800 to 1900 µg/mL (≈ 4.27 to 4.5 mM)
concentration in F57 vehicle ([6]; 1 wk): 1700 µg/mL
concentration in F57 vehicle ([6]; 4 wk): 1710 µg/mL
concentration in F57 vehicle ([6]; 1 day): 1200 µg/mL
concentration in F57 vehicle ([6]; 2 day): 1530 µg/mL
dissolution rate ([6]; bottom-up, emulsion vehicle): faster dissolution rate
solubility ([7]; organic solvent or mixture, thermodynamic from solid, 1,4-Dioxane, read-out: Solubility): > 24000 µg/mL
solubility ([7]; organic solvent or mixture, thermodynamic from solid, 2-MeTHF, read-out: Solubility): > 26000 µg/mL
solubility ([7]; organic solvent or mixture, thermodynamic from solid, Acetic acid, read-out: Solubility): > 22000 µg/mL
solubility ([7]; organic solvent or mixture, thermodynamic from solid, Acetone, read-out: Solubility): > 22000 µg/mL
solubility ([7]; organic solvent or mixture, thermodynamic from solid, Acetonitrile, read-out: Solubility): > 22000 µg/mL
solubility ([7]; organic solvent or mixture, thermodynamic from solid, DCM, read-out: Solubility): > 22000 µg/mL
solubility ([7]; organic solvent or mixture, thermodynamic from solid, DMAc, read-out: Solubility): > 22000 µg/mL
solubility ([7]; organic solvent or mixture, thermodynamic from solid, DMSO, read-out: Solubility): > 20000 µg/mL
solubility ([7]; organic solvent or mixture, thermodynamic from solid, EtOAc, read-out: Solubility): > 22000 µg/mL
solubility ([7]; organic solvent or mixture, thermodynamic from solid, Heptane, read-out: Solubility): < 1300 µg/mL
solubility ([7]; organic solvent or mixture, thermodynamic from solid, IPAc, read-out: Solubility): > 24000 µg/mL
solubility ([7]; organic solvent or mixture, thermodynamic from solid, MIBK, read-out: Solubility): > 22000 µg/mL
solubility ([7]; organic solvent or mixture, thermodynamic from solid, MTBE, read-out: Solubility): > 18000 µg/mL
solubility ([7]; organic solvent or mixture, thermodynamic from solid, MeOH, read-out: Solubility): > 18000 µg/mL
solubility ([7]; organic solvent or mixture, thermodynamic from solid, NMP, read-out: Solubility): > 26000 µg/mL
solubility ([7]; organic solvent or mixture, thermodynamic from solid, THF, read-out: Solubility): > 20000 µg/mL
solubility ([7]; organic solvent or mixture, thermodynamic from solid, Toluene, read-out: Solubility): > 22000 µg/mL
solubility ([7]; organic solvent or mixture, thermodynamic from solid, in Heptane and H2O, read-out: solubility (insoluble)): < 1300 µg/mL
solubility ([7]; organic solvent or mixture, thermodynamic from solid, in MeOH, Acetic acid, Acetonitrile, Acetone, MIBK, EtOAc, IPAc, MTBE, THF, 2-MeTHF, 1,4-Dioxane, NMP, DMSO, DCM, Toluene and DMAc, read-out: solubility (soluble)): > 18000 µg/mL
solubility ([7]; water, thermodynamic from solid, H2O, read-out: Solubility): < 1000 µg/mL
hygroscopicity ([8]; DVS isotherm plot): not hygroscopic
water uptake level ([8]; DVS isotherm, at 80% RH): < 0.03%
solubility at 7 weeks ([9]; F57 emulsion vehicle, thermodynamic from solid, bottom-up, F57 vehicle, 2-8° C., in 7 weeks): 1800 µg/mL (≈ 4.27 mM)
concentration in F57 vehicle ([9]; 2-8° C., 7 wk): 1850 µg/mL
concentration in F57 vehicle ([9]; 25° C., 1 wk): 2190 µg/mL
concentration in F57 vehicle ([9]; 25° C., 4 wk): 2170 µg/mL
concentration in F57 vehicle ([9]; 25° C., 1 day): 2180 µg/mL
concentration in F57 vehicle ([9]; 25° C., 2 day): 2240 µg/mL
concentration in F57 vehicle ([10]; 1 wk): 2680 µg/mL
concentration in F57 vehicle ([10]; 4 wk): 2640 µg/mL
concentration in F57 vehicle ([10]; 1 day): 2690 µg/mL
concentration in F57 vehicle ([10]; 2 day): 2650 µg/mL
strength dissolved into F57 vehicle [10]: 2.69 mg/mL
concentration on storage [10]: remained the same

Cc1cccc(F)c1C(=O)Nc1cnc(-c2cc3c(cc2Cl)OC(F)(F)O3)cn1 [Form B, N-(5-(6-chloro-2,2-difluorobenzo[d][1,3]dioxol-5-yl)pyrazin-2-yl)-2-fluoro-6-methylbenzamide]
concentration in F57 vehicle ([6]; 1 wk): 1630 µg/mL
concentration in F57 vehicle ([6]; 4 wk): 1660 µg/mL
concentration in F57 vehicle ([6]; 1 day): 750 µg/mL
concentration in F57 vehicle ([6]; 2 day): 1140 µg/mL
concentration in F57 vehicle ([9]; 2-8° C., 7 wk): 1800 µg/mL
concentration in F57 vehicle ([9]; 25° C., 1 wk): 2150 µg/mL
concentration in F57 vehicle ([9]; 25° C., 4 wk): 2040 µg/mL
concentration in F57 vehicle ([9]; 25° C., 1 day): 1300 µg/mL
concentration in F57 vehicle ([9]; 25° C., 2 day): 1730 µg/mL
solubility ([9]; bottom-up, F57 vehicle, 2-8° C., in 7 weeks): 1800 µg/mL (≈ 4.27 mM)
concentration in F57 vehicle ([10]; 1 wk): 2970 µg/mL
concentration in F57 vehicle ([10]; 4 wk): 2970 µg/mL
concentration in F57 vehicle ([10]; 1 day): 3000 µg/mL
concentration in F57 vehicle ([10]; 2 day): 2940 µg/mL
strength dissolved into F57 vehicle [10]: 3.00 mg/mL
concentration on storage [10]: remained the same
